Results from the NIST ThermoML archive (doi:10.1016/j.fluid.2013.03.030).
Numbers after ± are expanded uncertainties.

Key:
[1] = refractive index (other wavelength) (dimensionless); wn = mass fraction of the nth substance listed; conditions: 298.15 K, 100 kPa, Liquid, Wavelength=589.3 nm, Digital Refractometer Mettler Toledo
[2] = wn = mass fraction of the nth substance listed; conditions: 298.15 K, 100 kPa, Liquid; for viscosity: Capillary tube (Ostwald / Ubbelohde) method; for mass density: Vibrating tube method
[3] = xn = mol fraction of the nth substance listed; conditions: 298.15 K, 100 kPa, Liquid, Sing-around technique in a fixed-path interferometer

CCCC[P+](CCCC)(CCCC)CCCC.F[B-](F)(F)F [tetrabutylphosphonium tetrafluoroborate] + O
Conditions | mass density, [2] [kg/m3] | refractive index, [1] | speed of sound, [3] [m/s] | viscosity, [2] [mPa·s]
w1 = 0.001 | 997.16 ± 5.4 | 1.3326 ± 0.0011 | – | 0.901 ± 0.024
w1 = 0.003 | 998.67 ± 5.4 | 1.3333 ± 0.0011 | – | 0.909 ± 0.024
w1 = 0.005 | 1000.05 ± 5.4 | 1.3341 ± 0.0011 | – | 0.914 ± 0.024
x1 = 0.001 | – | – | 1498.9 ± 5.1 | –
x1 = 0.003 | – | – | 1502.6 ± 5.1 | –
x1 = 0.005 | – | – | 1507.5 ± 5 | –
